The source of these data is article PMC10791089, “Identification and evaluation of antiviral activity of novel compounds targeting SARS-CoV-2 virus by enzymatic and antiviral assays, and computational analysis” (Journal of Enzyme Inhibition and Medicinal Chemistry, 2024).

In data set [1] the target is SARS-CoV-2 M^pro (Severe acute respiratory syndrome coronavirus 2, UniProt P0DTD1). The data set is described as follows: biochemical.
Data set [2] addresses T1, SARS-CoV-2 PL^pro (Severe acute respiratory syndrome coronavirus 2, UniProt P0DTD1). Kind of data set: biochemical. Format: biochemical.
Data set [3] deals with T1, SARS-CoV-2 PL^pro. Kind of data set: biochemical.
Data set [4] has as its system SARS-CoV-2 strain Slovakia/SK-BMC5/2020. The data set is described as follows: microbe, parasite or virus in culture. Type of data set: cell-based.
The subject of data set [5] is VERO-E6 cells. Kind of data set: Cell viability MTT assay in VERO-E6 cells. Type of data set: cell-based, African Green Monkey. Particulars: VERO-E6 cell line, 72 h. (Tetrazolium dyes change colour on reduction, which living cells bring about.)
Data set [6] has as its system VERO-E6, Caco-2, PK-15, and A549 cells. The data set is described as follows: Cell viability MTT assay, averaged over screened cell lines. Particulars: concentration causing >40% reduction in number of viable cells, 72 h, 0.5-30 µM, n/o = no cytotoxic effect observed within the concentration range.
For data set [7], the system named is PL^pro. Particulars: read-out: IC50 deubiquitinase activity; drug repurposing study; cited from earlier work.
Data set [8] has as its system severe COVID-19 and hospitalisation. The arrangement: method as in PMID 34726479. Particulars: treatment started during the first days after appearance of symptoms; cited from earlier work.
The mark [9] stands for this setting: Severe acute respiratory syndrome coronavirus 2, Vero C1008, 72 h, read-out: EC50 Plaque reduction assay.
Where [10] appears, read: Severe acute respiratory syndrome coronavirus 2, Vero C1008, read-out: EC50 from the sigmoidal model (Figure 3 B1-B5).
The mark [11] stands for this setting: Severe acute respiratory syndrome coronavirus 2, Vero C1008, VERO-E6 cells, MOI 1.0, 72 h, 0.1-30 µM, n/o = no antiviral effect observed within the concentration range, read-out: EC50 Plaque reduction assay.
Where [12] appears, read: protease activity, 4 h at room temperature, 1 mM DTT, read-out: IC50 Enzyme assay PA M^pro.
The mark [13] stands for this setting: protease activity, 1 h at 37 °C, 1 mM DTT, read-out: IC50 Enzyme assay PA PL^pro.
Where [14] appears, read: deubiquitinase activity, 1 h at 37 °C, 1 mM DTT, read-out: IC50 Enzyme assay DUA PL^pro.
[15] abbreviates: VERO-E6 cells, MOI 1.0, 72 h, 0.1-30 µM, n/o = no antiviral effect observed within the concentration range.
[16] abbreviates: read-out: IC50 Enzyme assay PA PL^pro, protease activity, 1 h at 37 °C, 1 mM DTT.

Where “and” joins values, the source holds several entries; their conditions need not be identical. Equal values may be shown once. Read-outs that look alike come from different tables or passages of the source.

`CC(C)C[C@H](N)C(=O)NCCCNC(=O)OC1C/C(=C\c2ccc([N+](=O)[O-])cc2)C(=O)/C(=C/c2ccc([N+](=O)[O-])cc2)C1` (stereo partly drawn) [Compound T124]: the IC50 in data set [1], in data set [2] and in data set [3] was over 100 µM in each case. The concentration for a half-maximal effect (EC50) in data set [4] (setting [9]) and in data set [4] (setting [10]) was 15.9 µM in each case. Also, the “CTE in VERO-E6 cells” value in data set [5] is recorded as over 30 µM. The “CTE Cell viability MTT assay” value in data set [6] is over 30.0 µM.
With `Cc1ccc(/C=C2\CNC/C(=C\c3ccc(C)cc3)C2=O)cc1` [NSC63283], the IC50 (usually the concentration that inhibits the measured activity by half) in data set [7] was over 100 µM.
`Cc1ccc(N)cc1C(=O)N[C@H](C)c1cccc2ccccc12` [Compound C9, GRL0617, reference compound]: in data set [4] (VERO-E6 cells, MOI 1.0, 72 h, 0.1-30 µM, n/o = no antiviral effect observed within the concentration range, read-out: EC50 Plaque reduction assay), the EC50 (in general, the concentration that produces a half-maximal response) is 2.5 µM.
Turning to `CC(C)C[C@@H](NC(=O)OCc1ccccc1)C(=O)N[C@@H](CC1CCNC1=O)C(O)S(=O)(=O)O` (stereo partly drawn) [Compound C10, GC376, reference compound], the EC50 in data set [4] (setting [11]) came to 1 µM.
`CC(C)(C)[C@H](NC(=O)C(F)(F)F)C(=O)N1C[C@H]2[C@@H]([C@H]1C(=O)N[C@H](C#N)C[C@@H]1CCNC1=O)C2(C)C` [nirmatrelvir]: the “protection against severe COVID-19 and hospitalisation” value in data set [8] was “approximately 90%”.
For the compound `COc1cc(/C=C2\CC(OC(=O)NCCCN)C/C(=C\c3ccc(O)c(OC)c3)C2=O)ccc1O` (stereo not drawn) [Compound T123], the results for the IC50 in data set [1] (setting [12]), in data set [2] (setting [13]) and in data set [3] (setting [14]) were over 100 µM, 60 µM and 75 µM, respectively. Moreover, the “EC50 Plaque reduction assay” value in data set [4] (setting [15]) was “no antiviral effect was observed and did not show any inhibitory efficiency and n/o”.
In the case of `O=C1/C(=C/c2ccc([N+](=O)[O-])cc2)CC(O)C/C1=C\c1ccc([N+](=O)[O-])cc1` (stereo not drawn) [Compound T97], the IC50 in data set [1], in data set [2] and in data set [3] was over 100 µM each time. Besides, in data set [5], the “CTE in VERO-E6 cells” value is listed as “approximately 5 µM”. The “CTE Cell viability MTT assay” value in data set [6] is on record as over 5.0 µM.
As to `N#CSc1cc(SC#N)c(N)nc1N` [Compound C4, PR-619, reference compound], the IC50 is 0.7 µM in data set [1] (setting [12]), 0.1 µM in data set [2] (setting [13]) and 0.2 µM in data set [3] (setting [14]). Besides, in data set [4] (setting [9]), the concentration for a half-maximal effect (EC50) turned out to be 9 µM. For the same compound, the “CTE Cell viability MTT assay” value is over 10.0 µM in data set [6] and 5 to 10 µM in data set [6] (listed as PR-619).
With `CCC(CC)COC(=O)[C@H](C)N[P@](=O)(OC[C@H]1O[C@@](C#N)(c2ccc3c(N)ncnn23)[C@H](O)[C@@H]1O)Oc1ccccc1` [Compound C8, Remdesivir, reference compound], in data set [4] (setting [11]), the concentration for a half-maximal effect (EC50) was determined as 1.8 µM. Also, the “CTE Cell viability MTT assay” value in data set [6] was “n/o”.
Turning to `NC(=O)[C@H](Cc1ccccc1)NC(=O)OC1C/C(=C\c2ccc([N+](=O)[O-])cc2)C(=O)/C(=C/c2ccc([N+](=O)[O-])cc2)C1` (stereo partly drawn) [Compound T121], the half-inhibitory concentration (IC50) in data set [1], in data set [2] and in data set [3] was over 100 µM throughout. The results for the concentration giving a half-maximal response (EC50) in data set [4] (setting [9]) and in data set [4] (setting [10]) were 8.4 µM and 8.39 µM, respectively. For the same compound, the “CTE in VERO-E6 cells” value in data set [5] is 10 to 15 µM. In addition, the “CTE Cell viability MTT assay” value in data set [6] is over 10.0 to 15.0 µM.
Consider `NCCCNC(=O)OC1C/C(=C\c2ccc([N+](=O)[O-])cc2)C(=O)/C(=C/c2ccc([N+](=O)[O-])cc2)C1` (stereo not drawn) [Compound T98], for which the IC50 is over 100 µM in data set [1] and under 100 µM in data set [2] (setting [16]). Moreover, the concentration for a half-maximal effect (EC50) in data set [4] (setting [9]) stood at 6.7 µM; in data set [4] (setting [10]) it was 6.69 µM. Further, in data set [5], the “CTE in VERO-E6 cells” value was > 15 µM and 10 to 15 µM. Further, the “CTE Cell viability MTT assay” value in data set [6] was over 15.0 to 30.0 µM.
On to `N[C@@H](Cc1ccccc1)C(=O)N1C/C(=C\c2ccc(Cl)c(Cl)c2)C(=O)/C(=C/c2ccc(Cl)c(Cl)c2)C1` [RA-190, reference compound], for which the IC50 in data set [1] (setting [12]), in data set [2] (setting [13]) and in data set [3] (setting [14]) was over 100 µM in each case. The 50% effective concentration (EC50) in data set [4] (setting [11]) amounted to 3 µM.
In the case of `O=[N+]([O-])c1ccc(/C=C2\CC(O)C/C(=C\c3ccc([N+](=O)[O-])cc3)C2O)cc1` (stereo not drawn) [Compound T125], the IC50 in data set [1] was over 100 µM; in data set [2] (setting [16]), under 100 µM. In data set [4] (setting [15]), the “EC50 Plaque reduction assay” value was “no antiviral effect was observed and did not show any inhibitory efficiency and no antiviral activity and n/o”. Also, the “CTE Cell viability MTT assay” value in data set [6] was “no observed cytotoxic effect and n/o”.
As to `CC(C)C[C@H](NC(=O)OC1C/C(=C\c2ccc([N+](=O)[O-])cc2)C(=O)/C(=C/c2ccc([N+](=O)[O-])cc2)C1)C(N)=O` (stereo partly drawn) [Compound T120], the IC50 is over 100 µM in data set [1] and under 100 µM in data set [2] (setting [16]). Moreover, the EC50 in data set [4] (setting [9]) is 3.4 µM; in data set [4] (setting [10]) it was 3.43 µM. Besides, the “CTE in VERO-E6 cells” value in data set [5] was > 10 µM and 10 to 15 µM. In addition, the “CTE Cell viability MTT assay” value in data set [6] is reported as over 10.0 µM.
Regarding `O=C1/C(=C/c2ccc([N+](=O)[O-])cc2)CNC/C1=C\c1ccc([N+](=O)[O-])cc1` [RA-9, reference compound], in data set [4] (setting [9]), the half-maximal effective concentration (EC50) was determined as 12.1 µM. The “CTE Cell viability MTT assay” value in data set [6] is given as over 30.0 µM.
With `CC(C)(C)OC(=O)NCCCC[C@H](NC(=O)OC1C/C(=C\c2ccc([N+](=O)[O-])cc2)C(=O)/C(=C/c2ccc([N+](=O)[O-])cc2)C1)C(=O)O` (stereo partly drawn) [Compound T105], the IC50 in data set [1], in data set [2] and in data set [3] was over 100 µM throughout. The EC50 in data set [4] (setting [9]) is over 30 µM. The “EC50 Plaque reduction assay” value in data set [4] (setting [15]) is “no antiviral effect was observed and n/o”. Further, the “CTE Cell viability MTT assay” value in data set [6] was “no observed cytotoxic effect and n/o”.
As to `NCCCNC(=O)OC1C/C(=C\c2ccc([N+](=O)[O-])cc2)C(O)/C(=C/c2ccc([N+](=O)[O-])cc2)C1` (stereo not drawn) [Compound T122], the values for the IC50 in data set [1] and in data set [2] (setting [16]) were over 100 µM and under 100 µM, respectively. The EC50 in data set [4] (setting [9]) and in data set [4] (setting [10]) was 17 µM in each case. For the same compound, in data set [5], the “CTE in VERO-E6 cells” value is recorded as over 30 µM. In data set [6], the “CTE Cell viability MTT assay” value is on record as over 30.0 µM.
